Experiments:
senescent fibroblasts = experiment: SCFA-mediated CD4+ T cell stimulation assay: T cell-mediated cytotoxicity against senescent fibroblasts; assay type: cell-based, human; conditions: T cells exposed to 5 mM SCFA for 2 days; 6 h co-culture; T cell to fibroblast ratio 50:1
Protocol: FIGS. 15A-15B. […] (A) The frequency of cleaved caspase-3^+ senescent fibroblasts after co-culture for 6 h with skin T cells, which are preincubated with each 5 mM SCFAs for 2 days, using a skin T cell to fibroblast ratio of 50:1. All data are expressed as the mean±SD. n=3 individuals. (B) The effect of each SCFA (5 mM) treatment on the cytotoxicity of CD4^+ T cells. Flow cytometry analysis of perforin and CD107a expression on CD4^+ T cells exposed to each SCFA for 24 h. n=2 individuals. All data are expressed as the mean±SD.
T cells were seeded at a density of 2.5×10^5 cells into 60 mm dish, and were added to each 5 mM SCFAs, including butylate (EMD Millipore), pentanoate (Ambeed Inc), or propionate (Sigma-Aldrich) with 20 ng/ml human IL-2 recombinant and 20 ng/ml human IL-15 recombinant for 2 days. Following 2 days of co-incubation, T cells were subsequently added to each senescent fibroblasts-placed wells and were cultured in T cell medium with 20 ng/ml human IL-2 recombinant and 20 ng/ml human IL-15 recombinant in 24 well plate (Ratios of 50:1 T cells-to fibroblasts respectively). Following 6 hr of co-incubation, remaining fibroblasts were stained with vimentin and cleaved caspase-3 to examine the frequency of T cell-mediated cytotoxicity against senescent fibroblasts. […]

skin CD4+ T cells = experiment: Flow cytometry analysis of perforin and CD107a expression on CD4+ T cells exposed to SCFA; assay type: cell-based, human; conditions: 5 mM SCFA, 24 h
Protocol: FIGS. 15A-15B. Butyrate and pentanoate boost CD4 CTL-mediated clearance of senescent cells. (A) The frequency of cleaved caspase-3^+ senescent fibroblasts after co-culture for 6 h with skin T cells, which are preincubated with each 5 mM SCFAs for 2 days, using a skin T cell to fibroblast ratio of 50:1. All data are expressed as the mean±SD. n=3 individuals. (B) The effect of each SCFA (5 mM) treatment on the cytotoxicity of CD4^+ T cells. Flow cytometry analysis of perforin and CD107a expression on CD4^+ T cells exposed to each SCFA for 24 h. n=2 individuals. All data are expressed as the mean±SD.
Cells were washed once with PBS, including 5% newborn calf serum (Thermo Fisher Scientific, 26010074) and 0.01% sodium azide (Sigma-Aldrich, S2002-100G), and stained with antibodies (Tables 3B and 3B) on ice for 30 min followed by secondary antibody if needed (Table 3A). Following the surface marker staining, cells were fixed and permeabilized for intracellular staining using True-Nuclear Transcription Factor Buffer Set (BioLegend, 424401). Permeabilized cells were stained with antibodies (Table 3A) overnight at 4° C. […] Data were analyzed using FlowJo software (BD Life Sciences, Franklin Lakes, NJ). Relative fluorescence intensity was calculated by subtracting the median fluorescence intensity of isotype control from the median fluorescence intensity of stained samples.

human skin CD4 CTLs = experiment: Trans-well migration assay; assay type: cell-based; conditions: recombinant human CXCL9 50 nM (585 ng/mL) in bottom well, 60 min, vs PBS carrier
Description: FIGS. 6A-6E. CXCL9 promotes the migration of human skin-resident CD4 CTLs. […] The percent cells in each gate are shown on the flow-cytometry plots. Zombie fixable viability dye (Viability) marks dead cells. (B) Representative flow-cytometry plots of CXCR3 expression on CD4^+ and CD8^+ T cells in the human skin. Numbers on the flow-cytometry plots represent the percent cells within each gate. (C) The experimental scheme for trans-well migration assay using the immune cells isolated from the human skin. (D and E) The effect of CXCL9 recombinant protein (585 ng/mL) treatment on the migration of human skin CD4 CTLs (D) and CD8^+ T cells (E). Skin samples from two independent donors were used to isolate skin-resident immune cells (female skin donors). Bar graphs show mean±SD, Mann-Whitney U test.
Skin-isolated cells were seeded at a density of 1.5×10^4 cells/well into the top inserts of the 24-well trans-well plate (Corning, 07-200-149). The pore size is 5 μm. RPMI containing recombinant human CXCL9 (PeproTech, 300-26) or PBS (carrier only) at the concentration of 50 nM was added into the bottom well. Skin-isolated cells were incubated for 60 min. Then, cells were counted and stained as described in the flow cytometry section.

| Molecule | apoptosis (cleaved caspase-3+) in senescent fibroblasts by SCFA-exposed skin T cells (senescent fibroblasts) | expression of perforin+ and CD107a+ on CD4+ T cells (cytotoxicity capacity) (skin CD4+ T cells) | migration of human skin CD4 CTLs (human skin CD4 CTLs) |
| --- | --- | --- | --- |
| CCCCC(=O)O [pentanoate] | highly induced apoptosis | increase |  |
| CCCC(=O)O [butyrate] | highly induced apoptosis | increase |  |
| CXCL9: recombinant human CXCL9 chemokine (PeproTech, 300-26), ligand of CXCR3 (protein, UniProt Q07325 23-125, looked up) C-X-C motif chemokine 9: TPVVRKGRCSCISTNQGTIHLQSLKDLKQFAPSPSCEKIEIIATLKNGVQTCLNPDSADVKELIKKWEKQVSQKKKQKNGKKHQKKKVLKVRKSQRSRQKKTT |  |  | significantly induced the migration of CD4 CTLs |

— patent US20260224692A1, “T CELL-DIRECTED ANTI-AGING AND ANTI-CANCER VACCINES AGAINST COMMENSAL CYTOMEGALOVIRUS” (The General Hospital Corporation, priority 2023, published 2026)
